Experimental data published in patent US11332438B2, “Creatine prodrugs, compositions and methods of use thereof” (Ultragenyx Pharmaceutical Inc., priority 2017, dated 2022).
Counter-ions that a name gives are not always drawn. Blank lines part the entries; values can stand above or below the compound they belong to.

What was measured:
[1] = Plasma stability, human plasma; type: in vitro ADME; conditions: 37 °C, read-out: Plasma Stability Human t1/2
Protocol: (§1) The stabilities of creatine prodrugs can be evaluated in one or more in vitro systems using a variety of preparations following methods known in the art. Experimental conditions useful for the in vitro studies are described in Table 1. Prodrug is added to each preparation in triplicate. […]
(§2) Protocol for plasma stability for early screen macrocycles (Method A):
(§3) Frozen plasma was thawed by placing at 37° C. quickly and centrifuged at 3,000 rpm for 8 minutes to remove clots. Then the supernatant was pipetted and pooled as the plasma to be used in the experiment. The plasma was placed on ice until used. The test compounds and reference compounds spiking solution was prepared as a 2.5 mM test compounds spiking solution A: Add 20 μL of 10 mM test compounds stock solution to 60 μL DMSO. 0.1 mM Spiking solution B was prepared: Add 40 μL of spiking solution A to 960 μL of […] Sodium phosphate buffer with 0.5% BSA. […] For 0-min, 400 μL of ACN containing IS was added to the wells of 0-min plate and then 90 μL of plasma was added. […] 50 μL of the supernatant was transferred from each well into a 96-well sample plate containing 120 μL of ultra pure water (Millipore, ZMQS50F01) and analyzed by LC/MS.
(§4) Protocol for plasma stability (Method B):
(§5) The frozen plasma was thawed in a 37° C. water bath and then, if needed, adjusted to pH=7.4 then preheated in a 37° C. incubator. The test article was dissolved in 10% DMSO/water and spiked into plasma pre-plated into 96 well plates at a final concentration of 1 μM. Discrete incubations were performed at 37° C. and included 5 time points: t=0, 2, 5, 15, and 30 min. Samples were then crashed with 4× volume, ice cold 20% water/80% acetonitrile and spun at 4000 g for 10 mins. The supernatant was dried down and reconstituted with water and analyzed by LC-MS/MS. The half life in minute was calculated.

[2] = Plasma stability, mouse plasma; type: in vitro ADME; conditions: 37 °C, read-out: Plasma Stability Mouse t1/2
Protocol: as §1, §2, §3, §4, §5

[3] = test system: Phenocell CrT deficient neurons (iPSC-derived human neurons); assay: Creatine prodrug uptake and d3-creatine release in Phenocell CrT deficient neurons (Table 4B); type: cell-based; conditions: 2 hours
Protocol: Human neurons were obtained by differentiation of iPSC-derived neural stem cells for 14 days. The iPSCs were obtained from Phenocell Corporation. Neurons were cultured and differentiated to Day 10 and then frozen in liquid nitrogen. Neurons were thawed and replated at 1×10^6 per well of viable cells on poly-ornithine/laminin coated plates in 2 ml medium per well. Differentiation in complete Neurol medium with 2 ng/ml FGF2 was carried out for 4 additional days with a complete medium change (90% of medium) on Day 12. Activin A (20 ng/ml final conc.) was spiked into the cultures on Day 11 and Day 13. […] In parallel, compounds were incubated in medium alone to assess chemical stability of parent prodrug and metabolites. At the end of the 2 hour incubation, supernatants were collected and frozen at −80 C. Neurons in 6 well plates were washed gently 3× with HBSS and frozen at −80° C. Cell lysates were obtained by addition of 130 μl/well 10 mM Tris pH 7.4 with complete Mini protease inhibitors and scraping of wells. Plates were kept on ice during processing. Lysates were homogenized by hand briefly with a green pestle in 1.5 ml centrifuge tubes and then vortexed at high speed for 5 seconds. Lysates were centrifuged at 13,000 g, 10 minutes, 4 C and supernatants (cytosol fraction) were transferred in a new tube. A crash solution constituted of 80% acetonitrile and 20% water with bucetin, d5-Cr (internal standard) was added at 4:1 volume to volume to 50 ul of all samples for a total volume of 250 μL. Then plate was spun at 4000 rpm, 10 minutes, […] Samples were transferred to a new plate and frozen at −80 C prior to analysis by LC-MS/MS (Table 4B).

[4] = Liver microsome stability, human; type: in vitro ADME; conditions: liver microsomes, read-out: Microsome Stability Human t1/2
Protocol: as §1
(§6) Protocol for Microsomal Stability:
(§7) For reference compound, a 500 μM spiking solution was prepared: add 10 μL of 10 mM DMSO stock solution into 190 μL ACN. […] For test compound, a 5 mM spiking solution was prepared: add 10 μL of 10 mM DMSO stock solution into 10 μL ACN. […] NADPH stock solution (6 mM) was prepared by dissolving NADPH into buffer 0.1 M Potassium Phosphate buffer, 1.0 mM EDTA, pH 7.4. […] For 0-min, 135 μL of ACN containing IS was added to the wells of 0-min plate and then 15 μL of NADPH stock solution (6 mM) was added. 15 μL of NADPH stock solution (6 mM) was added to the samples designated as 0-, 5-, 10-, 20-, 30-min, 60-min; 15 μL of buffer 0.1 M Potassium Phosphate buffer, 1.0 mM EDTA, pH 7.4, was added to the samples designated as 60-min without NADPH. At 5-min, 10-min, 20-min, and 30-min, 60-min 135 μL of ACN containing IS was added to the wells of corresponding plates, respectively, to stop the reaction. […] 50 μL of the supernatant from each well was transferred into a 96-well sample plate containing 50 μL of ultra pure water (Millipore, ZMQS50FOI) and analyzed by LC/MS.

[5] = Chemical stability in simulated gastric fluid (SGF) without pepsin; type: physicochemical; conditions: 50 μM prodrug
Protocol: (§8) Chemical stability of creatine prodrugs in phosphate buffered saline (PBS), simulated intestinal fluid (SIF) without pancreatin, simulated gastric fluid (SGF) without pepsin were determined by LC-UV, LC-CAD, LC-UV-CAD or LC-MS/MS as appropriate. Creatine prodrugs of the present disclosure (50 μM) were incubated at 37° C. according to described protocols and prodrug levels were compared between t=0, t=15, t=60, and t=120 mins by peak area ratio to determine the percentage remained at t=120 mins (2 h).
(§9) Protocol for PBS, SIF and SGF stability for screening:
(§10) Prodrugs (50 μM) were incubated in PBS, FaSSIF (Biorelevant) or FaSSGF (Biorelevant) at 37° C.

[6] = Liver microsome stability, mouse; type: in vitro ADME; conditions: liver microsomes, read-out: Microsome Stability Mouse t1/2
Protocol: as §1, §6, §7

[7] = Chemical stability in phosphate buffered saline (PBS); type: physicochemical; conditions: 50 μM prodrug
Protocol: as §8, §9, §10

half-life ([1]; Table 2C, macrocycles): 1.2 h | half-life ([2]; Table 2C, macrocycles): 1.17 h | Prodrug concentration in the cell cytosol ([3]; Study No. 3, 50 μM): 0.48 nmoles/mg protein | d3-Creatine concentration in the cell cytosol ([3]; Study No. 3, 50 μM): BLOQ
SMILES: [2H]C([2H])([2H])N1CC(=O)OC(C)(C)CCCCCCCCCC(=O)NC1=N [Compound U, 5-imino-4-trideuteriomethyl-17,17-dimethyl-1-oxa-4,6-diazacycloheptadecane-2,7-dione]

Prodrug concentration in the cell cytosol ([3]; Study No. 2, 100 μM): BLOQ | Prodrug concentration in the cell cytosol ([3]; Study No. 2, 500 μM): BLOQ
SMILES: [2H]C([2H])([2H])N1CC(=O)OC(C)CCCCCCCCCCC(=O)NC1=N (stereo not drawn) [Compound M]

half-life ([1]; Table 2B): > 3 h | half-life at 10 μM ([4]; pH 7.4, Table 2B): > 1.5 h | half-life ([2]; Table 2B): > 3 h | Chemical Stability SGF, no enzyme % T0 at 2 hours at 37 °C. ([5]; Table 2B): 102% | half-life at 10 μM ([6]; pH 7.4, Table 2B): > 1.5 h | Chemical Stability PBS % T0 at 2 hours at 37 °C. ([7]; Table 2B): 103% | Prodrug concentration in the cell cytosol ([3]; Study No. 1, 10 μM): BLOQ | d3-Creatine concentration in the cell cytosol ([3]; Study No. 1, 10 μM): BLOQ | d3-Creatinine concentration in the cell cytosol ([3]; Study No. 1, 10 μM): BLOQ | Prodrug concentration in the cell cytosol ([3]; Study No. 1, 50 μM): BLOQ | d3-Creatine concentration in the cell cytosol ([3]; Study No. 1, 50 μM): BLOQ | d3-Creatinine concentration in the cell cytosol ([3]; Study No. 1, 50 μM): BLOQ
SMILES: [2H]C([2H])([2H])N(CC(=O)O)C(=N)NC(=O)CCCCCCCCCCO [Compound 54]

Chemical Stability SGF, no enzyme % T0 at 2 hours at 37 °C. ([5]; Table 2B): 98% | Chemical Stability PBS % T0 at 2 hours at 37 °C. ([7]; Table 2B): 98% | Prodrug concentration in the cell cytosol ([3]; Study No. 1, 10 μM): 3.47 nmoles/mg protein | d3-Creatine concentration in the cell cytosol ([3]; Study No. 1, 10 μM): 0.65 nmoles/mg protein | d3-Creatinine concentration in the cell cytosol ([3]; Study No. 1, 10 μM): 0.84 nmoles/mg protein | Prodrug concentration in the cell cytosol ([3]; Study No. 1, 50 μM): 12 nmoles/mg protein | d3-Creatine concentration in the cell cytosol ([3]; Study No. 1, 50 μM): 2.9 nmoles/mg protein | d3-Creatinine concentration in the cell cytosol ([3]; Study No. 1, 50 μM): 29.6 nmoles/mg protein | Prodrug concentration in the cell cytosol ([3]; Study No. 2, 50 μM): 9.5 nmoles/mg protein | d3-Creatine concentration in the cell cytosol ([3]; Study No. 2, 50 μM): 0.8 nmoles/mg protein | d3-Creatinine concentration in the cell cytosol ([3]; Study No. 2, 50 μM): 10.6 nmoles/mg protein | Prodrug concentration in the cell cytosol ([3]; Study No. 3, 50 μM): 0.51 nmoles/mg protein | d3-Creatine concentration in the cell cytosol ([3]; Study No. 3, 50 μM): 2.84 nmoles/mg protein | d3-Creatinine concentration in the cell cytosol ([3]; Study No. 3, 50 μM): 8.82 nmoles/mg protein
SMILES: Cl.[2H]C([2H])([2H])N(CC(=O)OC(C)C(C)(C)C)C(=N)NC(=O)CCCCCCCCCC (stereo not drawn) [Compound 52]

Prodrug concentration in the cell cytosol ([3]; Study No. 3, 50 μM): 0.44 nmoles/mg protein | d3-Creatine concentration in the cell cytosol ([3]; Study No. 3, 50 μM): BLOQ
SMILES: [2H]C([2H])([2H])N1CC(=O)OC(CCC)CCCCCCCC(=O)NC1=N (stereo not drawn) [Compound W, 5-imino-4-trideuteriomethyl-15-propyl-1-oxa-4,6-diazacyclopentadecane-2,7-dione]

half-life ([1]; Table 2C, macrocycles): 0.167 h | half-life ([2]; Table 2C, macrocycles): 0.0217 h | Prodrug concentration in the cell cytosol ([3]; Study No. 2, 100 μM): BLOQ | Prodrug concentration in the cell cytosol ([3]; Study No. 2, 500 μM): BLOQ
SMILES: [2H]C([2H])([2H])N1CC(=O)O[C@H](C)CCCCCCCCCC(=O)NC1=N [Compound Q, (R)-5-imino-4,17-dimethyl-1-oxa-4,6-diazacycloheptadecane-2,7-dione Hydrochloride]

Prodrug concentration in the cell cytosol ([3]; Study No. 3, 50 μM): BLOQ | d3-Creatine concentration in the cell cytosol ([3]; Study No. 3, 50 μM): BLOQ
SMILES: [2H]C([2H])([2H])N1CC(=O)OC(C)(C)CCCCCCCC(=O)NC1=N [Compound X, 5-imino-15,15-dimethyl-4-(methyl-d3)-1-oxa-4,6-diazacyclopentadecane-2,7-dione]

Prodrug concentration in the cell cytosol ([3]; Study No. 3, 50 μM): BLOQ | d3-Creatine concentration in the cell cytosol ([3]; Study No. 3, 50 μM): BLOQ
SMILES: [2H]C([2H])([2H])N1CC(=O)OC(CC)CCCCCCCC(=O)NC1=N (stereo not drawn) [Compound V, 15-ethyl-5-imino-4-(methyl-d3)-1-oxa-4,6-diazacyclopentadecane-2,7-dione]

Prodrug concentration in the cell cytosol ([3]; Study No. 3, 50 μM): BLOQ | d3-Creatine concentration in the cell cytosol ([3]; Study No. 3, 50 μM): BLOQ
SMILES: [2H]C([2H])([2H])N1CC(=O)OCCCCCCC(=O)NC1=N [Compound EE, 5-imino-4-trideuteriomethyl-1-oxa-4,6-diazacyclotridecane-2,7-dione]

Prodrug concentration in the cell cytosol ([3]; Study No. 3, 50 μM): 0.088 nmoles/mg protein | d3-Creatine concentration in the cell cytosol ([3]; Study No. 3, 50 μM): BLOQ
SMILES: [2H]C([2H])([2H])N1CC(=O)OC(C)(C)CCCCCCCCC(=O)NC1=N [Compound HH, 5-imino-4-trideuteriomethyl-16,16-Dimethyl-1-oxa-4,6-diazacyclohexadecane-2,7-dione]

Prodrug concentration in the cell cytosol ([3]; Study No. 3, 50 μM): BLOQ | d3-Creatine concentration in the cell cytosol ([3]; Study No. 3, 50 μM): BLOQ
SMILES: [2H]C([2H])([2H])N1CC(=O)OC(C)CCCCCCCC(=O)NC1=N (stereo not drawn) [Compound S, 5-imino-4-trideuteriomethyl-15-methyl-1-oxa-4,6-diazacyclopentadecane-2,7-dione]

half-life ([1]; Table 2A): > 3 h | half-life at 10 μM ([4]; pH 7.4, Table 2A): > 2.42 h | half-life ([2]; Table 2A): > 3 h | Chemical Stability SGF, no enzyme % T0 at 2 hours at 37 °C. ([5]; Table 2A): 74% | half-life at 10 μM ([6]; pH 7.4, Table 2A): > 2.42 h | Chemical Stability PBS % T0 at 2 hours at 37 °C. ([7]; Table 2A): 105%
SMILES: [2H]C([2H])([2H])N(CC(=O)O)C(=N)NC(=O)c1cccnc1 [Compound 21]
